# Experimental data published in US20220112187A1, “PYRAZOLOPYRIDINE AMINE COMPOUNDS FOR THE TREATMENT OF AUTOIMMUNE DISEASE” (Hoffmann-La Roche Inc., priority 2018, published 2022).
# Molecular target: T1, human TLR9 (Homo sapiens, UniProt Q9NR96)
# T1 sequence (Q9NR96 26-1032): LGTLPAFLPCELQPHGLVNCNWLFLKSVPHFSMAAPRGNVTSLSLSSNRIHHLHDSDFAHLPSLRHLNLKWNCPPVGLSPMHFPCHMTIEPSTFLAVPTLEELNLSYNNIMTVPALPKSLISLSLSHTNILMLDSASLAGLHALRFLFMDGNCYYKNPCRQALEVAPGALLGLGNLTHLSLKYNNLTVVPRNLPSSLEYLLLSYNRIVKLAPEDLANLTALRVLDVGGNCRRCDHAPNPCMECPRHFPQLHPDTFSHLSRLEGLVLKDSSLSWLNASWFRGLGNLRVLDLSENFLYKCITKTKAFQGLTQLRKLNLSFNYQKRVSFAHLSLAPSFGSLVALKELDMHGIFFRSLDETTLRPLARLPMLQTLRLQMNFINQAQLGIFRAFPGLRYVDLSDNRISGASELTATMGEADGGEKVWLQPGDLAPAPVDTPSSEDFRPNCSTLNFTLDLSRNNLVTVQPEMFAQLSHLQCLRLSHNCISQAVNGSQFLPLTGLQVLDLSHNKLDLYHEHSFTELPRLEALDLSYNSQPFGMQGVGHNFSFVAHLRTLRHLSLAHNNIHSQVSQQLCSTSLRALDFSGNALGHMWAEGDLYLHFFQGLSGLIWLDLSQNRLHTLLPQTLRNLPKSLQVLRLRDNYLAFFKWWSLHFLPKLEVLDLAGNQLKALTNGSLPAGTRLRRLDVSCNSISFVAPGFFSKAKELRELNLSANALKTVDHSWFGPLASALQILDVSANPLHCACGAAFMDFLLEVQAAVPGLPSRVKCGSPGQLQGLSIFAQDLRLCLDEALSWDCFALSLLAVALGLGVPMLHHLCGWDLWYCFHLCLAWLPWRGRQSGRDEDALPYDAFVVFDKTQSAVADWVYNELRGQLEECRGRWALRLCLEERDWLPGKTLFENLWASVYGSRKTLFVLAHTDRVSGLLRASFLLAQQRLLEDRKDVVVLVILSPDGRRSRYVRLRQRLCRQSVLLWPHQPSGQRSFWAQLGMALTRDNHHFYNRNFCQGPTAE
# Assay: HEK293-Blue-hTLR-9 cells assay (SEAP reporter, ODN2006 stimulation)
# Format: cell-based
# Conditions: HEK293-Blue-hTLR9 cells, ODN2006 ligand, 20 hrs incubation
# Procedure, shortened: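 HEK293-Blue cells stimulated with ODN2006 (10 μL of 20 uM added) plus serially diluted compound, 1% DMSO final, for 20 hrs at 37° C. SEAP in supernatant measured with QUANTI-Blue after 2 hrs at 37° C, absorbance at 620-655 nm; antagonism seen as reduced reporter signal.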
row,SMILES,IC50 [nM]
1,"C[C@@H]1CN(c2ccc(C#N)n3nccc23)C[C@H](CN2CC[C@H](N)[C@H](C)C2)O1 [Example 74, 4-[(2S,6R)-2-[[(3R,4S)-4-amino-3-methyl-1-piperidyl]methyl]-6-methyl-morpholin-4-yl]pyrazolo[1,5-a]pyridine-7-carbonitrile]",220
2,"C[C@@H]1CN(c2ccc(C#N)n3nccc23)C[C@H](CN2CCC3(CN(C)CCO3)C2)O1 (stereo partly drawn) [Example 76, 4-[(2R,6S)-2-methyl-6-[(9-methyl-6-oxa-2,9-diazaspiro[4.5]decan-2-yl)methyl]morpholin-4-yl]pyrazolo[1,5-a]pyridine-7-carbonitrile]",3500
3,"C[C@@H]1CN(c2ccc(C#N)n3nccc23)C[C@H](CN2CCN(C3CCNCC3)CC2Cc2ccccc2)O1 (stereo partly drawn) [Example 77, 4-[(2S,6R)-2-[[2-benzyl-4-(4-piperidyl)piperazin-1-yl]methyl]-6-methyl-morpholin-4-yl]pyrazolo[1,5-a]pyridine-7-carbonitrile]",150
